Values of other authors in patent US20240315993A1, “ANTIPARASITIC COMPOUNDS” (Intervet Inc., priority 2021, published 2024).

How the values were obtained:
[1] = tested on: Beet Armyworm (Spodoptera exigua); conditions: Beet Armyworm second instar larvae, 128-well diet tray, 50 μg/cm^2, five to seven days, average of eight wells; cited from earlier work
[2] = tested on: Cabbage Looper (Trichoplusia ni); conditions: Cabbage Looper second instar larvae, 128-well diet tray, 50 μg/cm^2, five to seven days, average of eight wells; cited from earlier work
[3] = tested on: Yellow Fever Mosquito (Aedes aegypti); conditions: Aedes aegypti larvae about 1 day old, 96-well plate, scored after 3 days; cited from earlier work

| SMILES | Test A: Bioassay on BAW, percent mortality rating [1] | Test B: Bioassay on CL, percent mortality rating [2] | Test C: Bioassay on Yellow Fever Mosquito, mortality rating [3] |
| --- | --- | --- | --- |
| Cc1ccc(NC(=O)c2cc(NC(=O)C3C(c4cc(Cl)cc(Cl)c4)C3(Cl)Cl)ccc2Cl)c([N+](=O)[O-])c1 (stereo not drawn) [c52] | A (50-100) | A (50-100) | A (80-100) |
| N#Cc1cc(C(F)(F)F)ccc1NC(=O)c1cc(NC(=O)C2C(c3cc(Cl)cc(Cl)c3)C2(Cl)Cl)ccc1Cl (stereo not drawn) [c53] | A (50-100) | A (50-100) | A (80-100) |
| N#Cc1ccc(NC(=O)c2cc(NC(=O)C3C(c4cc(Cl)cc(Cl)c4)C3(Cl)Cl)ccc2Cl)cc1C(F)(F)F (stereo not drawn) [c54] | A (50-100) | A (50-100) | A (80-100) |
| O=C(Nc1ccc2c(c1)C(=O)NC2=O)c1cc(NC(=O)C2C(c3cc(Cl)cc(Cl)c3)C2(Cl)Cl)ccc1Cl (stereo not drawn) [c55] | A (50-100) | A (50-100) | D (No activity noticed in this bioassay) |
| N#Cc1cc(N)ccc1NC(=O)c1cc(NC(=O)C2C(c3cc(Cl)cc(Cl)c3)C2(Cl)Cl)ccc1Cl (stereo not drawn) [c56] | A (50-100) | A (50-100) | A (80-100) |
| CC(=O)N(C(C)=O)c1ccc(NC(=O)c2cc(NC(=O)C3C(c4cc(Cl)cc(Cl)c4)C3(Cl)Cl)ccc2Cl)c(C#N)c1 (stereo not drawn) [c57] | A (50-100) | A (50-100) | A (80-100) |
| CNc1ccc(NC(=O)c2cc(NC(=O)C3C(c4cc(Cl)cc(Cl)c4)C3(Cl)Cl)ccc2Cl)c(C#N)c1 (stereo not drawn) [c58] | A (50-100) | A (50-100) | A (80-100) |
| Cc1cc(N)ccc1NC(=O)c1cc(NC(=O)C2C(c3cc(Cl)cc(Cl)c3)C2(Cl)Cl)ccc1Cl (stereo not drawn) [c59] | A (50-100) | A (50-100) | A (80-100) |
| O=C1Cc2cc(NC(=O)c3cc(NC(=O)C4C(c5cc(Cl)cc(Cl)c5)C4(Cl)Cl)ccc3Cl)ccc2N1 (stereo not drawn) [c60] | A (50-100) | A (50-100) | A (80-100) |
| O=C(Nc1cc2cc[nH]c2cn1)c1cc(NC(=O)C2C(c3cc(Cl)cc(Cl)c3)C2(Cl)Cl)ccc1Cl (stereo not drawn) [c61] | A (50-100) | A (50-100) | A (80-100) |
| O=C(Nc1ccc2nccn2c1)c1cc(NC(=O)C2C(c3cc(Cl)cc(Cl)c3)C2(Cl)Cl)ccc1Cl (stereo not drawn) [c62] | A (50-100) | A (50-100) | A (80-100) |
| Cn1ncc2cc(NC(=O)c3cc(NC(=O)C4C(c5cc(Cl)cc(Cl)c5)C4(Cl)Cl)ccc3Cl)cnc21 (stereo not drawn) [c63] | A (50-100) | A (50-100) | A (80-100) |
| Cc1ccc2c(NC(=O)c3cc(NC(=O)C4C(c5cc(Cl)cc(Cl)c5)C4(Cl)Cl)ccc3Cl)n[nH]c2c1 (stereo not drawn) [c64] | A (50-100) | A (50-100) | A (80-100) |
| Cc1cc(N2C(=O)C=CC2=O)ccc1NC(=O)c1cc(NC(=O)C2C(c3cc(Cl)cc(Cl)c3)C2(Cl)Cl)ccc1Cl (stereo not drawn) [c65] | A (50-100) | A (50-100) | A (80-100) |
| O=C(Nc1cnc2[nH]ccc2c1)c1cc(NC(=O)C2C(c3cc(Cl)cc(Cl)c3)C2(Cl)Cl)ccc1Cl (stereo not drawn) [c66] | A (50-100) | A (50-100) | A (80-100) |
| CCOC(=O)c1cc2cc(NC(=O)c3cc(NC(=O)C4C(c5cc(Cl)cc(Cl)c5)C4(Cl)Cl)ccc3Cl)ccc2[nH]1 (stereo not drawn) [c67] | A (50-100) | A (50-100) | A (80-100) |
| CC(C)(C)OC(=O)n1ccc2cc(NC(=O)c3cc(NC(=O)C4C(c5cc(Cl)cc(Cl)c5)C4(Cl)Cl)ccc3Cl)ccc21 (stereo not drawn) [c68] | A (50-100) | A (50-100) | D (No activity noticed in this bioassay) |
